SMILES strings stand for the structures. Bounds are passed on as bounds.

The first assay deals with RSV. As to the kind of experiment: Dose-response counterscreen: luciferase reporter virus infection of BEAS-2B cells (EC50). To be noted: human respiratory syncytial virus, A series compounds, anti-RSV potency, read-out: Potency Range (EC50 values). The assay is classed as cell-based, respiratory syncytial virus (RSV). On the technique in general: A counterscreen serves to expose hits that act by an unwanted route or on another target.
Consider `COc1cc(C2CC(=O)Nc3c2cnn3-c2nc3ccccc3s2)ccc1OC1CCCC1` (stereo not shown) [AVG-006, 1-(benzo[d]thiazol-2-yl)-4-(4-(cyclopentyloxy)-3-methoxyphenyl)-4,5-dihydro-1H-pyrazolo[3,4-b]pyridin-6(7H)-one], for which the EC50 fell in the range of 1 to 10 µM.

As for `COc1cc(C2CC(=O)Nc3nn(-c4nc5ccccc5s4)cc32)ccc1OC1CCCC1` (stereo not shown) [AVG-006b], the EC50 was 1 to 10 µM.

In the case of `COc1ccc(C2CC(=O)Nc3c2cnn3-c2ccccc2)cc1OC1CCCC1` (stereo not shown) [AVG-065, 4-(3-(cyclopentyloxy)-4-methoxyphenyl)-1-phenyl-4,5-dihydro-1H-pyrazolo[3,4-b] pyridin-6(7H)-one], the EC50 was in the range of 10 to 20 µM.

In the case of `COc1ccc(C2CC(=O)Nc3nn(-c4ccccc4)cc32)cc1OC1CCCC1` (stereo not shown) [AVG-065b], the EC50 lay in the range of 1 to 10 µM.

With `COc1cc(C2CC(=O)Nc3c2cnn3-c2ccccc2)ccc1OC1CCCC1` (stereo not shown) [AVG-066], the EC50 lay within 10 to 20 µM.

In the case of `COc1ccc(-c2cc(=O)[nH]c3c2cnn3-c2ccccc2)cc1OC1CCCC1` [AVG-067, 4-(3-(cyclopentyloxy)-4-methoxyphenyl)-1-phenyl-1H-pyrazolo[3,4-b]pyridine-6(7H)-one], the EC50 was above 20 µM.

With `COc1ccc(Cn2ncc3c2NC(=O)CC3c2ccc(OC)c(OC3CCCC3)c2)c(OC)c1` (stereo not shown) [AVG-068, 4-(3-(cyclopentyloxy)-4-methoxyphenyl)-1-(2,4-dimethoxybenzyl)-4,5-dihydro-1H-pyrazolo[3,4-b]pyridin-6(7H)-one], the EC50 was in the range of 1 to 10 µM.

Turning to `COc1ccc(C2CC(=O)Nc3[nH]ncc32)cc1OC1CCCC1` (stereo not shown) [AVG-069, 4-(3-(cyclopentyloxy)-4-methoxyphenyl)-4,5-dihydro-1H-pyrazolo[3,4-b]pyridin-6(7H)-one], the EC50 is above 20 µM.

Consider `COc1ccc(C2CC(=O)Nc3c2cnn3-c2ccccn2)cc1OC1CCCC1` (stereo not shown) [AVG-116], for which the EC50 was in the range of 1 to 10 µM.

Still in this assay, the particulars now being: human respiratory syncytial virus, B series compounds, read-out: Potency Range (EC50 values).
As to `Cc1c2c(=O)n(-c3nc4ccccc4s3)n(Cc3ccccc3)c2cc(=O)n1Cc1ccco1` [AVG-021, 2-(benzo[d]thiazol-2-yl)-1-benzyl-5-(furan-2-ylmethyl)-4-methyl-1H-pyrazolo[4,3-c] pyridine-3,6(2H,5H)-dione], the EC50 was 1 to 10 µM.

On to `Cc1c2c(=O)n(-c3nc4ccccc4s3)[nH]c2cc(=O)n1Cc1ccco1` [AVG-022, 2-(benzo[d]thiazol-2-yl)-5-(furan-2-ylmethyl)-4-methyl-1H-pyrazolo[4,3-c]pyridine-3,6(2H, 5H)-dione], for which the EC50 was 0.1 to 1 µM.

In the case of `Cc1c2c(=O)n(-c3nc4ccccc4s3)n(C)c2cc(=O)n1Cc1ccco1` [AVG-023], the EC50 is above 20 µM.

As for `Cc1c2c(=O)n(-c3nc4ccccc4s3)n(CC3CCCCC3)c2cc(=O)n1Cc1ccco1` [AVG-024], the concentration giving a half-maximal response (EC50) is 1 to 10 µM.

With `Cc1c2c(=O)n(-c3nc4ccccc4s3)n(CC3CCOCC3)c2cc(=O)n1Cc1ccco1` [AVG-025], the EC50 is 1 to 10 µM.

Take `Cc1c2c(=O)n(-c3nc4ccccc4s3)n(CC3CCNCC3)c2cc(=O)n1Cc1ccco1` [AVG-026]: the EC50 fell in the range of 1 to 10 µM.

With `Cc1c2c(=O)n(-c3nc4ccccc4s3)n(CC3CCN(C)CC3)c2cc(=O)n1Cc1ccco1` [AVG-027], the EC50 was 10 to 20 µM.

As for `Cc1c2c(=O)n(-c3nc4ccccc4s3)n(Cc3ccccc3)c2cc(=O)n1CCN1CCOCC1` [AVG-028], the EC50 was in the range of 1 to 10 µM.

On to `Cc1c2c(=O)n(-c3nc4ccccc4s3)n(C)c2cc(=O)n1CCN1CCOCC1` [AVG-029], for which the EC50 was above 20 µM.

As to `Cc1c2c(=O)n(-c3nc4ccccc4s3)n(Cc3ccccc3)c2cc(=O)n1Cc1ccc(Cl)cc1` [AVG-031], the EC50 was in the range of 0.1 to 1 µM.

On to `Cc1c2c(=O)n(-c3nc4ccccc4s3)n(C)c2cc(=O)n1Cc1ccc(Cl)cc1` [AVG-032], for which the EC50 was above 20 µM.

Turning to `Cc1nc(-n2c(=O)c3c(C)n(Cc4ccco4)c(=O)cc3n2Cc2ccccc2)sc1C` [AVG-033], the EC50 was in the range of 1 to 10 µM.

As for `Cc1c2c(=O)n(-c3cc4ccccc4cn3)n(Cc3ccccc3)c2cc(=O)n1Cc1ccco1` [AVG-034], the EC50 fell in the range of 1 to 10 µM.

Regarding `Cc1c2c(=O)n(-c3ccccn3)n(Cc3ccccc3)c2cc(=O)n1Cc1ccco1` [AVG-035], the EC50 lay in the range of 1 to 10 µM.

Turning to `Cc1c2c(=O)n(-c3nc4ccccc4s3)n(Cc3ccccc3)c2cc(=O)n1Cc1ccccn1` [AVG-036], the EC50 was 0.1 to 1 µM.

Consider `Cc1c2c(=O)n(-c3nc4ccccc4s3)n(C)c2cc(=O)n1Cc1ccccn1` [AVG-037], for which the EC50 is above 20 µM.

Consider `Cc1c2c(=O)n(-c3nc4ccccc4s3)n(Cc3ccccc3)c2cc(=O)n1CC1CCNCC1` [AVG-038], for which the EC50 was above 20 µM.

`Cc1c2c(=O)n(-c3nc4ccccc4s3)n(Cc3ccccc3)c2cc(=O)n1CC1CCN(C)CC1` [AVG-039]: the EC50 was 10 to 20 µM.

In the case of `Cc1c2c(=O)n(-c3nc4ccccc4s3)n(Cc3ccccc3)c2cc(=O)n1CC1CCOCC1` [AVG-040], the EC50 lay within 1 to 10 µM.

As for `Cc1c2c(=O)n(-c3nc4ccccc4s3)n(Cc3ccccc3)c2cc(=O)n1C1CCNCC1` [AVG-041], the EC50 lay within 1 to 10 µM.

For the compound `Cc1c2c(=O)n(-c3nc4ccccc4s3)n(Cc3ccccc3)c2cc(=O)n1C1CCN(C)CC1` [AVG-042], the EC50 was in the range of 1 to 10 µM.

Take `Cc1c2c(=O)n(-c3nc4ccccc4s3)n(Cc3ccccc3)c2cc(=O)n1C1CCOCC1` [AVG-043]: the concentration for a half-maximal effect (EC50) lay in the range of 10 to 20 µM.

For `Cc1c2c(=O)n(-c3nc4ccccc4s3)n(CC(C)C)c2cc(=O)n1Cc1ccco1` [AVG-070], the EC50 lay in the range of 1 to 10 µM.

Turning to `Cc1c2c(=O)n(-c3nc4ccccc4s3)n(CC3CCCC3)c2cc(=O)n1Cc1ccco1` [AVG-071], the EC50 was in the range of 1 to 10 µM.

Regarding `Cc1c2c(=O)n(-c3nc4ccccc4s3)n(CC3CCCOC3)c2cc(=O)n1Cc1ccco1` (stereo not shown) [AVG-072], the EC50 was in the range of 1 to 10 µM.

With `Cc1c2c(=O)n(-c3nc4ccccc4s3)n(CC3CCCCO3)c2cc(=O)n1Cc1ccco1` (stereo not shown) [AVG-073], the EC50 lay within 1 to 10 µM.

Regarding `Cc1c2c(=O)n(-c3nc4ccccc4s3)n(Cc3ccccc3)c2cc(=O)n1CC1CCCO1` (stereo not shown) [AVG-074], the EC50 lay within 10 to 20 µM.

As for `Cc1c2c(=O)n(-c3nc4ccccc4s3)n(Cc3ccccc3)c2cc(=O)n1CC1CCOC1` (stereo not shown) [AVG-075], the EC50 fell in the range of 1 to 10 µM.

`Cc1c2c(=O)n(-c3nc4ccccc4s3)n(Cc3ccccc3)c2cc(=O)n1Cc1ccccc1Cl` [AVG-076]: the EC50 lay within 10 to 20 µM.

`Cc1c2c(=O)n(-c3nc4ccccc4s3)n(Cc3ccccc3)c2cc(=O)n1Cc1cccc(Cl)c1` [AVG-077]: the EC50 fell in the range of 0.1 to 1 µM.

Consider `Cc1c2c(=O)n(-c3ccccn3)n(Cc3ccccc3)c2cc(=O)n1Cc1ccc(Cl)cc1` [AVG-078], for which the EC50 was in the range of 0.1 to 1 µM.

Take `Cc1c2c(=O)n(-c3ccccn3)n(CC3CCOCC3)c2cc(=O)n1Cc1ccc(Cl)cc1` [AVG-079]: the EC50 was above 20 µM.

For the compound `Cc1c2c(=O)n(-c3ccccc3)n(Cc3ccccc3)c2cc(=O)n1Cc1ccco1` [AVG-080], the EC50 was in the range of 1 to 10 µM.

Take `Cc1c2c(=O)n(-c3cccnc3)n(Cc3ccccc3)c2cc(=O)n1Cc1ccco1` [AVG-081]: the EC50 fell in the range of 10 to 20 µM.

On to `Cc1c2c(=O)n(-c3ccncc3)n(Cc3ccccc3)c2cc(=O)n1Cc1ccco1` [AVG-082], for which the EC50 lay in the range of 1 to 10 µM.

Turning to `Cc1c2c(=O)n(-c3nc4ccccc4s3)n(Cc3ccccc3)c2cc(=O)n1Cc1cccnc1` [AVG-088], the EC50 fell in the range of 1 to 10 µM.

Take `Cc1c2c(=O)n(-c3nc4ccccc4s3)n(Cc3ccccc3)c2cc(=O)n1Cc1ccncc1` [AVG-089]: the EC50 lay in the range of 1 to 10 µM.

As to `Cc1c2c(=O)n(-c3nc4ccccc4s3)n(Cc3ccccc3)c2cc(=O)n1Cc1ncccn1` [AVG-090], the EC50 is 10 to 20 µM.

For `Cc1c2c(=O)n(-c3nc4ccccc4s3)n(Cc3ccccc3)c2cc(=O)n1Cc1cccnn1` [AVG-091], the EC50 lay in the range of 1 to 10 µM.

With `Cc1c2c(=O)n(-c3nc4ccccc4s3)n(Cc3ccccc3)c2cc(=O)n1Cc1ccncn1` [AVG-092], the EC50 is 1 to 10 µM.

Turning to `Cc1c2c(=O)n(-c3nc4ccccc4s3)n(Cc3ccccc3)c2cc(=O)n1Cc1cnccn1` [AVG-093], the EC50 was in the range of 0.1 to 1 µM.

Take `Cc1c2c(=O)n(-c3nc4ccccc4s3)n(Cc3ccccc3)c2cc(=O)n1Cc1cccc(Cl)n1` [AVG-094]: the EC50 fell in the range of 0.1 to 1 µM.

For the compound `Cc1c2c(=O)n(-c3nc4ccccc4s3)n(Cc3ccccc3)c2cc(=O)n1Cc1ccc(Cl)cn1` [AVG-095], the half-maximal effective concentration (EC50) lay in the range of 1 to 10 µM.

For the compound `Cc1c2c(=O)n(-c3nc4ccccc4s3)n(Cc3ccccc3)c2cc(=O)n1Cc1ncco1` [AVG-096], the EC50 is 1 to 10 µM.

`Cc1c2c(=O)n(-c3nc4ccccc4s3)n(Cc3ccccc3)c2cc(=O)n1Cc1ncc[nH]1` [AVG-097]: the EC50 was 1 to 10 µM.

Consider `Cc1c2c(=O)n(-c3nc4ccccc4s3)n(Cc3ccccc3)c2cc(=O)n1Cc1nccn1C` [AVG-098], for which the EC50 lay in the range of 1 to 10 µM.

As for `Cc1c2c(=O)n(-c3nc4ccccc4s3)n(Cc3ccccc3)c2cc(=O)n1Cc1c[nH]cn1` [AVG-099], the EC50 lay within 1 to 10 µM.

For `Cc1c2c(=O)n(-c3nc4ccccc4s3)n(Cc3ccccc3)c2cc(=O)n1Cc1cn(C)cn1` [AVG-100], the EC50 is above 20 µM.

Turning to `Cc1c2c(=O)n(-c3nc4ccccc4s3)n(Cc3ccccc3)c2cc(=O)n1Cc1ccn[nH]1` [AVG-101], the EC50 was 1 to 10 µM.

Consider `Cc1c2c(=O)n(-c3nc4ccccc4s3)n(Cc3ccccc3)c2cc(=O)n1Cc1ccnn1C` [AVG-102], for which the half-maximal effective concentration (EC50) lay in the range of 1 to 10 µM.

For the compound `Cc1c2c(=O)n(-c3nc4ccccc4s3)n(Cc3ccccc3)c2cc(=O)n1Cc1ccn(C)n1` [AVG-103], the EC50 lay in the range of 1 to 10 µM.

`Cc1c2c(=O)n(-c3ccccn3)n(Cc3ccccc3)c2cc(=O)n1Cc1ccccn1` [AVG-104]: the EC50 is 1 to 10 µM.

Take `Cc1c2c(=O)n(-c3ncccn3)n(Cc3ccccc3)c2cc(=O)n1Cc1ccco1` [AVG-105]: the EC50 was above 20 µM.

With `Cc1c2c(=O)n(-c3cnccn3)n(Cc3ccccc3)c2cc(=O)n1Cc1ccco1` [AVG-106], the EC50 was 1 to 10 µM.

Take `Cc1c2c(=O)n(-c3ccccc3)n(Cc3ccccc3)c2cc(=O)n1Cc1ccccn1` [AVG-107]: the EC50 was in the range of 1 to 10 µM.

With `Cc1c2c(=O)n(-c3ccncn3)n(Cc3ccccc3)c2cc(=O)n1Cc1ccco1` [AVG-108], the half-maximal effective concentration (EC50) was in the range of 1 to 10 µM.

As for `Cc1c2c(=O)n(-c3cccnn3)n(Cc3ccccc3)c2cc(=O)n1Cc1ccco1` [AVG-109], the half-maximal effective concentration (EC50) lay in the range of 1 to 10 µM.

Regarding `Cc1c2c(=O)n(-c3ccco3)n(Cc3ccccc3)c2cc(=O)n1Cc1ccccn1` [AVG-110], the EC50 lay within 10 to 20 µM.

As a reminder, the EC50 is the concentration giving half of the maximal effect.

For the origin of these results see patent US10906899B2, “Bicyclic fused pyrazole derivatives for the treatment of RSV” (GEORGIA STATE UNIVERSITY RESEARCH FOUNDATION, INC., priority 2016, dated 2021).
